Measurements as given in patent US6231887A, “Pharmaceutical composition for acidic lipophilic compounds in a form of a self-emulsifying formulation” (priority 1998, dated 2001).

Legend:
[1] = system: retroviral protease; settings: qualitative statement; compounds disclosed in WO 95/30670; cited from earlier work
[2] = Aqueous solubility in buffer; type: physicochemical; settings: buffer of pH 6.5 (close to the pH of the intestine), free acid

## CCC[C@@]1(CCc2ccccc2)CC(O)=C([C@H](CC)c2cccc(NS(=O)(=O)c3ccc(C(F)(F)F)cn3)c2)C(=O)O1 [compound of formula I]
[1]
  effectiveness as an inhibitor of retroviral protease: especially effective
[2]
  solubility: ~1 µg/mL
